target: Ubiquitin carboxyl-terminal hydrolase 1/WD repeat-containing protein 48 (Homo sapiens, UniProt O94782+Q8TAF3); assay: In Vitro USP1  Inhibitory Activity
Description: Experimental Methods1) Preparation of 1× assay buffer: 1× assay buffer (modified Tris buffer) was prepared;2) Compound dilution: The compound was transferred to the assay plate by Echo.

Sequence of Ubiquitin carboxyl-terminal hydrolase 1/WD repeat-containing protein 48 (O94782 whole entry): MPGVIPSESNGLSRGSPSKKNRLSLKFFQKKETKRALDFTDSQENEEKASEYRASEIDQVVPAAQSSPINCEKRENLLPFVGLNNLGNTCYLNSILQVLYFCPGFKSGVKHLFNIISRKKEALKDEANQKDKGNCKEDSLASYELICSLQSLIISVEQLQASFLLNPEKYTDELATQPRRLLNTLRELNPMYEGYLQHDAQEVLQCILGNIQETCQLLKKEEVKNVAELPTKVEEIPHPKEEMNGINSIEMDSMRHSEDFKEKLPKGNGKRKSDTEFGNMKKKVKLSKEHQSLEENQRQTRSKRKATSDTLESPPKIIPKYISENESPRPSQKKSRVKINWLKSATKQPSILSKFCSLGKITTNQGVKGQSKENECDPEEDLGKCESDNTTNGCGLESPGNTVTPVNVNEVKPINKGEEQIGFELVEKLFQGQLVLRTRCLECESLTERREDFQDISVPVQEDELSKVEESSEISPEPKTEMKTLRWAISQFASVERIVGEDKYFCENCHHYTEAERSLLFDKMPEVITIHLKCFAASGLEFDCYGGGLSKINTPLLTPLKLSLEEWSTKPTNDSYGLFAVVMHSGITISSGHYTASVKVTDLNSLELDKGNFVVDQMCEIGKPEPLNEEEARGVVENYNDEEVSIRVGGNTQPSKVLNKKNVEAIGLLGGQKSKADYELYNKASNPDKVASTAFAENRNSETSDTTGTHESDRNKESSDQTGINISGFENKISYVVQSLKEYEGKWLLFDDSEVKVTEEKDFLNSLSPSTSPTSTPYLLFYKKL
Sequence of Ubiquitin carboxyl-terminal hydrolase 1/WD repeat-containing protein 48 (Q8TAF3 whole entry): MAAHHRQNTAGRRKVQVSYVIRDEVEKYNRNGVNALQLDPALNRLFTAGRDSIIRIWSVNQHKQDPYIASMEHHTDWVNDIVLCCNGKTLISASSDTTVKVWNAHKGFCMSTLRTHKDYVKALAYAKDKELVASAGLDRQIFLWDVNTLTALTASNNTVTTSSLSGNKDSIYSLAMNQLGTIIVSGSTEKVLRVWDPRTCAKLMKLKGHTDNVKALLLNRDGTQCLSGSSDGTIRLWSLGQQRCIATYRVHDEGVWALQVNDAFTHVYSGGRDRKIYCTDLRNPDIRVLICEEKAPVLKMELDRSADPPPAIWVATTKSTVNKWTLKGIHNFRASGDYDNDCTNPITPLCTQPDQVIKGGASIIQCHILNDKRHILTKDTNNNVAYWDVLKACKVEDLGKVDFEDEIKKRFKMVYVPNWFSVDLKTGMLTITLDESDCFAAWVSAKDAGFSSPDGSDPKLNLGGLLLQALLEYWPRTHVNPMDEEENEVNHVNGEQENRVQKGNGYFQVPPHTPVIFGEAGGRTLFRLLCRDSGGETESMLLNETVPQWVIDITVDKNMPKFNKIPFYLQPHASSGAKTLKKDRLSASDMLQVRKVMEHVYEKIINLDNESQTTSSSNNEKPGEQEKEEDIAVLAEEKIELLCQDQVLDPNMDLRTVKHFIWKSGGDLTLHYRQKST

SMILES | IC50 [nM]
COc1cnn(C(C)C)c1-c1nc(NCc2ccc(-n3nc(C(F)(F)F)cc3C)cc2)c2occc2n1 [US20250289799, Example 182] | 7.4
COc1ncnc(C2CC2)c1-c1ncc(Cl)c(NCc2ccc(-c3nc(C(F)(F)F)cn3C3CC3)cc2)n1 [US20250289799, Example 125] | 3.1
COc1cnc(-c2c(C)noc2C(C)C)nc1NCc1ccc(-c2nc(C(F)(F)F)cn2C)cc1 [US20250289799, Example 188] | 15
CC(C)Oc1cnc(-c2ccccc2C(C)C)nc1NCc1ccc(-c2nc(C(F)(F)F)cn2C)cc1 [US20250289799, Example 73] | 3.6
COc1ncnc(C2CC2)c1-c1ncc2c(n1)N(CC1CCN(c3ccccn3)CC1)CCO2 [US20250289799, Example 10] | 564
COc1ncnc(C2CC2)c1-c1ncc2c(n1)N(CC1CCN(c3nc(C(F)(F)F)cn3C)CC1)CCO2 [US20250289799, Example 20] | 91.5
COc1cnc(-c2ccccc2C(C)C)nc1N(C)CC1CCN(c2nc(C(F)(F)F)cn2C)CC1 [US20250289799, Example 62] | 2.1
COc1ncnc(C2CC2)c1-c1nc(NCc2ccc(OCc3ccccn3)cc2)c2occc2n1 [US20250289799, Example 116] | 19.4
COc1cc(CNc2nc(-c3ccccc3C(C)C)ncc2OC)ccc1-n1nc(C(F)(F)F)cc1C [US20250289799, Example 69] | 9.2
COc1cnc(-c2c(Cl)cnn2C(C)C)nc1NCC12CCC(c3nc(C(F)(F)F)cn3C)(CC1)OC2 [US20250289799, Example 209] | 1.6
COc1ncnc(C2CC2)c1-c1ncc(OC(C)C)c(NCc2ccc(-c3nc(C(F)(F)F)cn3C)cc2)n1 [US20250289799, Example 111] | 10.4
COc1cnc(-c2cccnc2C2CC2)nc1NCC1CCN(c2nc(C(F)(F)F)cn2C)CC1 [US20250289799, Example 152] | 7.5
COc1ncnc(C2CC2)c1-c1ncc(Cl)c(NCc2ccc(-c3nc(C(F)(F)F)cn3C)cc2)n1 [US20250289799, Example 124] | 6.1
COc1cnc(-c2cccc3ccn(C)c23)nc1NCc1ccc(-n2nc(C(F)(F)F)cc2C)cc1 [US20250289799, Example 144] | 68.6
COc1cnc(-c2ccccc2C2CC2)nc1NCc1ccc(-c2nc(C(F)(F)F)cn2C)cc1 [US20250289799, Example 169] | 0.8
COc1cnc(-c2ccccc2C(C)C)nc1NCc1ccc2c(c1)CN(C1CCC(=O)NC1=O)C2=O (stereo not drawn) [US20250289799, Example 41] | 1260
COc1cnc(-c2c(OC)ncnc2C2CC2)nc1N(Cc1ccc(-c2nc(C(F)(F)F)cn2C)cc1)C1CC1 [US20250289799, Example 141] | 9.5
COc1cnc(-c2c(OC)ncnc2C2CC2)nc1NCc1ccc(-c2nc(C(F)(F)F)cn2C)cc1 [US20250289799, Example 96] | 4.8
COc1cnc(-c2c(Cl)cnn2C(C)C)nc1NCC1CCN(c2nc(C(F)(F)F)cn2C)CC1 [US20250289799, Example 163] | 2.3
[2H]C([2H])([2H])N(Cc1ccc(-c2nc(C(F)(F)F)cn2CF)cc1)c1nc(-c2c(OC)ncnc2C2CC2)ncc1F [US20250289799, Example 130] | 19
COc1cnc(-c2cccc3c2N(C)CC3)nc1NCc1ccc(-c2nc(C(F)(F)F)cn2C)cc1 [US20250289799, Example 145] | 19

SMILES | IC50 [nM]
COc1cnc(-c2ccccc2C(C)C)nc1NCc1ccc(-c2nc(C(F)(F)F)cn2C)cc1 [US20250289799, Example 4] | 1.2
COc1cnc(-c2cncnc2C2CC2)nc1N(C)Cc1ccc(-c2nc(C(F)(F)F)cn2C)cc1 [US20250289799, Example 193] | 87
CC(C)c1ccccc1-c1ncc2c(n1)N(CC1CCN(c3nc(C(F)(F)F)cn3C)CC1)C(=O)CO2 [US20250289799, Example 24] | 8.8
COc1cnc(-c2c(C)cnn2C2CC2)nc1NCc1ccc(-c2nc(C(F)(F)F)cn2C)cc1 [US20250289799, Example 199] | 5.6
COc1ncnc(C2CC2)c1-c1ncc(OC(C)C)c(NCC23CCC(c4ccc(C(F)(F)F)cn4)(CC2)CC3)n1 [US20250289799, Example 112] | 266
CC(C)c1ccccc1-c1nc(NCc2ccc(-c3nc(C(F)(F)F)cn3C)cc2)c2ncccc2n1 [US20250289799, Example 40] | 2.3
COc1cnc(-c2cccnc2C2CC2)nc1NCc1ccc(-c2nc(C(F)(F)F)cn2C)cc1 [US20250289799, Example 153] | 3.4
COc1cc(CNc2nc(-c3ccccc3C3CC3)nc3ccoc23)ccc1-c1nc(C(F)(F)F)cn1C [US20250289799, Example 176] | 4
COc1ncnc(C2CC2)c1-c1ncc2c(n1)N(CC1CCN(c3nc(C(F)(F)F)cn3C)CC1)C(=O)CO2 [US20250289799, Example 30] | 37
COc1cnc(-c2c(OC)ncnc2C2CC2)nc1N(O)Cc1ccc(-c2nc(C(F)(F)F)cn2C)cc1 [US20250289799, Example 204] | 25
CC(C)Oc1cnc(-c2ccccc2C(C)C)nc1NCC12CCC(c3ccc(C(F)(F)F)cn3)(CC1)CC2 [US20250289799, Example 74] | 873
COc1cnc(-c2c(OC)ncnc2C2CC2)nc1N(C)Cc1ccc(-c2ccccn2)cc1 [US20250289799, Example 19] | 24
COc1cnc(-c2c(Cl)cnn2C2CC2)nc1N(C)Cc1ccc(-c2nc(C(F)(F)F)cn2C)cc1 [US20250289799, Example 191] | 4.3
COc1cnc(-c2c(OC)ncnc2C2CC2)nc1NCc1ccc(OCc2ccccn2)cc1 [US20250289799, Example 98] | 144
COc1cc(CNc2nc(-c3ccccc3C3CC3)ncc2OC)ccc1-c1nc(C(F)(F)F)cn1C [US20250289799, Example 172] | 12
COc1cnc(-c2c(C)cnn2C(C)C)nc1N(C)Cc1ccc(-c2nc(C(F)(F)F)cn2C)cc1 [US20250289799, Example 200] | 2.8
COc1ncnc(C2CC2)c1-c1ncc(OC(F)F)c(NCC2CCN(c3nc(C(F)(F)F)cn3C)CC2)n1 [US20250289799, Example 133] | 15
COc1cnc(-c2c(OC)ncnc2C2CC2)nc1NCc1ccc(-c2ccccn2)cc1 [US20250289799, Example 94] | 6.5
COc1cnc(-c2c(Cl)cnn2C(C)C)nc1N(C)CC1CCN(c2ccccn2)CC1 [US20250289799, Example 161] | 6
COc1cc(CNc2nc(-c3c(OC)ncnc3C3CC3)nc3ccoc23)ccc1-c1nc(C(F)(F)F)cn1C [US20250289799, Example 120] | 8.9
COc1ncnc(C2CC2)c1-c1nc(NCc2ccc(-c3nc(C(F)(F)F)cn3C)cc2)c2occc2n1 [US20250289799, Example 35] | 9.6

SMILES | IC50 [nM]
Cc1cc(C(F)(F)F)nn1-c1ccc(CNc2nc(-c3ccccc3C(C)C)nc3ccoc23)cc1 [US20250289799, Example 57] | 4.4
COCc1cnc(-c2c(OC)ncnc2C2CC2)nc1N(C)Cc1ccc(-c2nc(C(F)(F)F)cn2C(C)C)cc1 [US20250289799, Example 138] | 9
COc1cnn(C2CC2)c1-c1ncc(OC(F)F)c(NCc2ccc(-c3nc(C(F)(F)F)cn3C)cc2)n1 [US20250289799, Example 185] | 9.8
CC(C)c1ccccc1-c1nc(NCc2ccc3c(c2)CCN(C)C3=O)c2occc2n1 [US20250289799, Example 77] | 28
COc1cnc(-c2c(Cl)cnn2C(C)C)nc1NCc1ccc(-c2nc(C(F)(F)F)cn2C)cc1 [US20250289799, Example 164] | 1.1
COc1ncnc(C2CC2)c1-c1nc(NCc2ccc3c(c2)CCN(C(C)C)C3=O)c2occc2n1 [US20250289799, Example 115] | 77
COc1cnc(-c2c(OC)cnn2C(C)C)nc1N(C)CC1CCN(c2ccccn2)CC1 [US20250289799, Example 177] | 75
COc1cc(CNc2nc(-c3c(OC)ncnc3C3CC3)nc3ccoc23)ccc1-n1nc(C(F)(F)F)cc1C [US20250289799, Example 122] | 13
Cn1cc(C(F)(F)F)nc1-c1ccc(CNc2nc(-c3ccccc3C3CC3)nc3ccoc23)cc1 [US20250289799, Example 173] | 1
Cn1cc(C(F)(F)F)nc1-c1ccc(CNc2nc(-c3cncnc3C3CC3)nc3ccoc23)cc1 [US20250289799, Example 196] | 12
COc1ncnc(C2CC2)c1-c1nc(NCc2ccc(-c3nc(C(F)F)cn3C)cc2)c2occc2n1 [US20250289799, Example 123] | 20
COc1ncnc(C2CC2)c1-c1nc(NCc2ccc(-n3nc(C(F)(F)F)cc3C)cc2)c2occc2n1 [US20250289799, Example 50] | 5.2
COc1ncnc(C2CC2)c1-c1ncc(Cl)c(NCc2ccc(-c3nc(C(F)(F)F)cn3CF)cc2)n1 [US20250289799, Example 126] | 13
COc1cnc(-c2c(C)ncn2C(C)C)nc1NCc1ccc(-c2nc(C(F)(F)F)cn2C)cc1 [US20250289799, Example 147] | 364
COc1cnc(-c2c(OC)ncnc2C2CC2)nc1NCc1ccc(-n2nc(C(F)(F)F)cc2C)cc1 [US20250289799, Example 26] | 4.6
COc1cc(CNc2nc(-c3ccccc3C(C)C)nc3ccoc23)ccc1-n1nc(C(F)(F)F)cc1C [US20250289799, Example 84] | 9
C#Cc1cnc(-c2c(C)cnn2C(C)C)nc1NCc1ccc(-c2nc(C(F)(F)F)cn2C)cc1 [US20250289799, Example 203] | 1.4
COc1ncnc(C2CC2)c1-c1nc(NCc2ccc3c(c2)CCN(C)C3=O)c2occc2n1 [US20250289799, Example 114] | 648
COc1cnc(-c2c(OC)cnn2C(C)C)nc1NCc1ccc(-c2nc(C(F)(F)F)cn2C)cc1 [US20250289799, Example 180] | 15
COc1cc(CNc2nc(-c3ccccc3C(C)C)nc3ccoc23)ccc1-c1nc(C(F)(F)F)cn1C [US20250289799, Example 82] | 1.7
COc1cc(-n2nc(C(F)(F)F)cc2C)ccc1CNc1nc(-c2c(OC)ncnc2C2CC2)ncc1OC [US20250289799, Example 102] | 4.4

Source: BindingDB's records for patent US20250289799 (Jiangsu Yahong Meditech Co., 2025)
